Laboratory results as given in ChEMBL document CHEMBL1156794, “Synthesis and antimicrobial evaluation of amphiphilic neamine derivatives” (J Med Chem, 2010).
Converted amounts (≈) assume the structure as drawn.

Legend:
Pseudomonas aeruginosa [1] = assay: Inhibition of protein synthesis in Pseudomonas aeruginosa ATCC 27853 assessed as decrease in incorporation of L-[4,5-3H]leucine at 10 times MIC by liquid scintillation counter relative to control; assay type: functional
Pseudomonas aeruginosa [2] = assay: Inhibition of protein synthesis in Pseudomonas aeruginosa ATCC 27853 assessed as decrease in incorporation of L-[4,5-3H]leucine at 5 times MIC by liquid scintillation counter relative to control; assay type: functional
Acinetobacter lwoffii [3] = assay: microbe, parasite or virus in culture; conditions: ATCC 17925, 24 h
Description: Antibacterial activity against Acinetobacter lwoffii ATCC 17925 after 24 hrs by geometric microdilution method

Pseudomonas aeruginosa [4] = assay: Antibacterial activity against MexXY expressing Pseudomonas aeruginosa PT629 after 24 hrs by geometric microdilution method; assay type: functional; conditions: PT629, 24 h
Pseudomonas aeruginosa [5] = assay: Antibacterial activity against Pseudomonas aeruginosa PAO1 after 24 hrs by geometric microdilution method; assay type: functional; conditions: PAO1, 24 h
Escherichia coli [6] = assay: microbe, parasite or virus in culture; conditions: ATCC 25922, 24 h
Description: Antibacterial activity against Escherichia coli ATCC 25922 after 24 hrs by geometric microdilution method

Pseudomonas aeruginosa [7] = assay: Antibacterial activity against MexCD expressing Pseudomonas aeruginosa PA01 after 24 hrs by geometric microdilution method; assay type: functional; conditions: PA01, 24 h
Pseudomonas aeruginosa [8] = assay: Antibacterial activity against MexEF expressing Pseudomonas aeruginosa PA03 after 24 hrs by geometric microdilution method; assay type: functional; conditions: PA03, 24 h
Escherichia coli [9] = assay: Antibacterial activity against R-methylase expressing Escherichia coli 06AB003 after 24 hrs by geometric microdilution method; assay type: functional; conditions: 06AB003, 24 h
Citrobacter amalonaticus = assay: Antibacterial activity against R-methylase expressing Citrobacter amalonaticus 06AB0010 after 24 hrs by geometric microdilution method; assay type: functional; conditions: 06AB0010, 24 h
Escherichia coli [10] = assay: Antibacterial activity against ANT2'-2a expressing Escherichia coli L58058.1 after 24 hrs by geometric microdilution method; assay type: functional; conditions: L58058.1, 24 h
Klebsiella pneumoniae = assay: Antibacterial activity against Klebsiella pneumoniae ATCC 700603 after 24 hrs by geometric microdilution method; assay type: functional; conditions: ATCC 700603, 24 h
Pseudomonas aeruginosa [11] = assay: Antibacterial activity against MexXY expressing Pseudomonas aeruginosa PA22 after 24 hrs by geometric microdilution method; assay type: functional; conditions: PA22, 24 h
Pseudomonas aeruginosa [12] = assay: Antibacterial activity against Pseudomonas aeruginosa ATCC 27853 after 24 hrs by geometric microdilution method; assay type: functional; conditions: ATCC 27853, 24 h
Pseudomonas aeruginosa [13] = assay: Antibacterial activity against AAC6'-2a expressing Pseudomonas aeruginosa F03 after 24 hrs by geometric microdilution method; assay type: functional; conditions: F03, 24 h
Pseudomonas aeruginosa [14] = assay: Antibacterial activity against TriABC expressing MexAB, MexCD, MexEF, MexXY deleted Pseudomonas aeruginosa PA405 after 24 hrs by geometric microdilution method; assay type: functional; conditions: PA405, 24 h
Escherichia coli [15] = assay: Antibacterial activity against AAC6'-2b expressing Escherichia coli PAZ505H8101 after 24 hrs by geometric microdilution method; assay type: functional; conditions: PAZ505H8101, 24 h
Pseudomonas aeruginosa [16] = assay: Antibacterial activity against MexAB, MexCD, MexEF, MexXY, TriABC deleted Pseudomonas aeruginosa PA406 after 24 hrs by geometric microdilution method; assay type: functional; conditions: PA406, 24 h
Acinetobacter lwoffii [17] = assay: Antibacterial activity against […] expressing Acinetobacter lwoffii AI.88-483 after 24 hrs by geometric microdilution method; assay type: functional; conditions: AI.88-483, 24 h
Klebsiella aerogenes = assay: Antibacterial activity against R-methylase expressing Enterobacter aerogenes 06AB008 after 24 hrs by geometric microdilution method; assay type: functional; conditions: 06AB008, 24 h
Pseudomonas aeruginosa [18] = assay: Antibacterial activity against MexAB expressing Pseudomonas aeruginosa PA21 after 24 hrs by geometric microdilution method; assay type: functional; conditions: PA21, 24 h
Staphylococcus aureus [19] = assay: Antibacterial activity against NorA pump expressing Staphylococcus aureus after 24 hrs by geometric microdilution method; assay type: functional
Nucleic Acid = assay: Binding affinity to bacterial rRNA A site at 200 uM by isothermal titration calorimetry; assay type: nucleic-acid assay
Staphylococcus aureus [20] = assay: Antibacterial activity against aminoglycoside-6'-N-acetyltransferase/2''-O-phosphoryltransferase expressing Staphylococcus aureus after 24 hrs by geometric microdilution method; assay type: functional
Staphylococcus aureus [21] = assay: Antibacterial activity against Staphylococcus aureus ATCC 25923 after 24 hrs by geometric microdilution method; assay type: functional; conditions: ATCC 25923, 24 h
Pseudomonas aeruginosa [22] = assay: Inhibition of protein synthesis in Pseudomonas aeruginosa ATCC 27853 assessed as decrease in incorporation of L-[4,5-3H]leucine at MIC by liquid scintillation counter relative to control; assay type: functional
Staphylococcus aureus [23] = assay: Antibacterial activity against methicillin-resistant Staphylococcus aureus ATCC 33592 clinical isolate after 24 hrs by geometric microdilution method; assay type: functional; conditions: ATCC 33592, 24 h
Staphylococcus aureus [24] = assay: Antibacterial activity against vancomycin-resistant Staphylococcus aureus VRS-2 after 24 hrs by geometric microdilution method; assay type: functional; conditions: VRS-2, 24 h
Staphylococcus aureus [25] = assay: Antibacterial activity against aminoglycoside-3'-O-phosphoryltransferase expressing Staphylococcus aureus after 24 hrs by geometric microdilution method; assay type: functional
Staphylococcus aureus [26] = assay: Antibacterial activity against MsrA pump expressing Staphylococcus aureus after 24 hrs by geometric microdilution method; assay type: functional
Staphylococcus aureus [27] = assay: Antibacterial activity against aminoglycoside-4'-O-phosphoryltransferase expressing Staphylococcus aureus after 24 hrs by geometric microdilution method; assay type: functional

C[C@H]1[C@H](NC(=O)/C(=N\OC(C)(C)C(=O)O)c2csc(N)n2)C(=O)N1S(=O)(=O)O [AZTREONAM]
inhibition (INH) (Pseudomonas aeruginosa [1]): 95% | inhibition (INH) (Pseudomonas aeruginosa [2]): 30%

NC[C@H]1O[C@H](O[C@H]2[C@H](O)[C@@H](O[C@H]3O[C@H](CO)[C@@H](O)[C@H](N)[C@H]3O)[C@H](N)C[C@@H]2N)[C@H](N)C[C@@H]1O [TOBRAMYCIN]
MIC (Acinetobacter lwoffii [3]): 0.5 µg/mL (≈ 1.07 µM) | MIC (Pseudomonas aeruginosa [4]): 1 µg/mL (≈ 2.14 µM) | MIC (Pseudomonas aeruginosa [5]): 0.5 µg/mL (≈ 1.07 µM) | MIC (Escherichia coli [6]): 0.5 µg/mL (≈ 1.07 µM) | MIC (Pseudomonas aeruginosa [7]): 0.5 µg/mL (≈ 1.07 µM) | MIC (Pseudomonas aeruginosa [8]): < 0.25 µg/mL | MIC (Escherichia coli [9]): > 128 µg/mL | MIC (Citrobacter amalonaticus): > 128 µg/mL | MIC (Escherichia coli [10]): 64 µg/mL (≈ 137 µM) | MIC (Klebsiella pneumoniae): 4 µg/mL (≈ 8.56 µM) | MIC (Pseudomonas aeruginosa [11]): 1 µg/mL (≈ 2.14 µM) | MIC (Pseudomonas aeruginosa [12]): 0.5 µg/mL (≈ 1.07 µM) | MIC (Pseudomonas aeruginosa [13]): 128 µg/mL (≈ 274 µM) | MIC (Pseudomonas aeruginosa [14]): < 0.25 µg/mL | MIC (Escherichia coli [15]): 32 µg/mL (≈ 68.4 µM) | MIC (Pseudomonas aeruginosa [16]): < 0.25 µg/mL | MIC (Acinetobacter lwoffii [17]): 1 µg/mL (≈ 2.14 µM) | MIC (Klebsiella aerogenes): > 128 µg/mL | MIC (Pseudomonas aeruginosa [18]): 0.5 µg/mL (≈ 1.07 µM)

NC[C@@H]1O[C@H](O[C@H]2[C@@H](O)[C@H](O[C@@H]3[C@@H](O)[C@H](N)C[C@H](N)[C@H]3O[C@H]3O[C@H](CN)[C@@H](O)[C@H](O)[C@H]3N)O[C@@H]2CO)[C@H](N)[C@@H](O)[C@@H]1O [FRAMYCETIN]
MIC (Staphylococcus aureus [19]): 1 µg/mL (≈ 1.63 µM) | MIC (Acinetobacter lwoffii [3]): 0.5 µg/mL (≈ 0.813 µM) | Kd (Nucleic Acid): 1.55 µM | MIC (Pseudomonas aeruginosa [4]): 32 µg/mL (≈ 52.1 µM) | MIC (Staphylococcus aureus [20]): 1 µg/mL (≈ 1.63 µM) | MIC (Staphylococcus aureus [21]): 2 µg/mL (≈ 3.25 µM) | MIC (Pseudomonas aeruginosa [5]): 4 µg/mL (≈ 6.51 µM) | inhibition (INH) (Pseudomonas aeruginosa [22]): 40% | MIC (Staphylococcus aureus [23]): > 128 µg/mL | MIC (Staphylococcus aureus [24]): 128 µg/mL (≈ 208 µM) | MIC (Escherichia coli [6]): 2 µg/mL (≈ 3.25 µM) | MIC (Pseudomonas aeruginosa [7]): 8 µg/mL (≈ 13 µM) | MIC (Pseudomonas aeruginosa [8]): 4 µg/mL (≈ 6.51 µM) | inhibition (INH) (Pseudomonas aeruginosa [1]): 40% | MIC (Escherichia coli [10]): 32 µg/mL (≈ 52.1 µM) | MIC (Staphylococcus aureus [25]): > 128 µg/mL | MIC (Staphylococcus aureus [26]): 2 µg/mL (≈ 3.25 µM) | MIC (Klebsiella pneumoniae): 16 µg/mL (≈ 26 µM) | MIC (Pseudomonas aeruginosa [11]): 32 µg/mL (≈ 52.1 µM) | MIC (Pseudomonas aeruginosa [12]): 64 µg/mL (≈ 104 µM) | MIC (Pseudomonas aeruginosa [13]): 128 µg/mL (≈ 208 µM) | MIC (Pseudomonas aeruginosa [14]): 2 µg/mL (≈ 3.25 µM) | MIC (Escherichia coli [15]): 4 µg/mL (≈ 6.51 µM) | MIC (Pseudomonas aeruginosa [16]): 4 µg/mL (≈ 6.51 µM) | MIC (Acinetobacter lwoffii [17]): > 128 µg/mL | MIC (Staphylococcus aureus [27]): 32 µg/mL (≈ 52.1 µM) | MIC (Pseudomonas aeruginosa [18]): 4 µg/mL (≈ 6.51 µM)

NCC[C@H](O)C(=O)N[C@@H]1C[C@H](N)[C@@H](O[C@H]2O[C@H](CN)[C@@H](O)[C@H](O)[C@H]2O)[C@H](O)[C@H]1O[C@H]1O[C@H](CO)[C@@H](O)[C@H](N)[C@H]1O [AMIKACIN]
MIC (Acinetobacter lwoffii [3]): 0.5 µg/mL (≈ 0.854 µM) | MIC (Pseudomonas aeruginosa [4]): 8 µg/mL (≈ 13.7 µM) | MIC (Pseudomonas aeruginosa [5]): 2 µg/mL (≈ 3.42 µM) | MIC (Escherichia coli [6]): 4 µg/mL (≈ 6.83 µM) | MIC (Pseudomonas aeruginosa [7]): 2 µg/mL (≈ 3.42 µM) | MIC (Pseudomonas aeruginosa [8]): 2 µg/mL (≈ 3.42 µM) | MIC (Escherichia coli [9]): > 128 µg/mL | MIC (Citrobacter amalonaticus): > 128 µg/mL | MIC (Escherichia coli [10]): 2 µg/mL (≈ 3.42 µM) | MIC (Klebsiella pneumoniae): 0.5 µg/mL (≈ 0.854 µM) | MIC (Pseudomonas aeruginosa [11]): 8 µg/mL (≈ 13.7 µM) | MIC (Pseudomonas aeruginosa [12]): 2 µg/mL (≈ 3.42 µM) | MIC (Pseudomonas aeruginosa [13]): 4 µg/mL (≈ 6.83 µM) | MIC (Pseudomonas aeruginosa [14]): 0.5 µg/mL (≈ 0.854 µM) | MIC (Escherichia coli [15]): 32 µg/mL (≈ 54.6 µM) | MIC (Pseudomonas aeruginosa [16]): 1 µg/mL (≈ 1.71 µM) | MIC (Acinetobacter lwoffii [17]): > 128 µg/mL | MIC (Klebsiella aerogenes): > 128 µg/mL | MIC (Pseudomonas aeruginosa [18]): 2 µg/mL (≈ 3.42 µM)

NC[C@H]1O[C@H](O[C@H]2[C@H](O)[C@@H](OCc3ccc4ccccc4c3)[C@H](N)C[C@@H]2N)[C@H](N)[C@@H](OCc2ccc3ccccc3c2)[C@@H]1OCc1ccc2ccccc2c1
Kd (Nucleic Acid): 10 µM | MIC (Pseudomonas aeruginosa [4]): 4 µg/mL (≈ 5.38 µM) | MIC (Pseudomonas aeruginosa [5]): 8 µg/mL (≈ 10.8 µM) | MIC (Pseudomonas aeruginosa [7]): 4 µg/mL (≈ 5.38 µM) | MIC (Pseudomonas aeruginosa [8]): 4 µg/mL (≈ 5.38 µM) | inhibition (INH) (Pseudomonas aeruginosa [1]): 60% | MIC (Escherichia coli [9]): 4 µg/mL (≈ 5.38 µM) | MIC (Citrobacter amalonaticus): 4 µg/mL (≈ 5.38 µM) | MIC (Escherichia coli [10]): 4 µg/mL (≈ 5.38 µM) | MIC (Klebsiella pneumoniae): 16 µg/mL (≈ 21.5 µM) | MIC (Pseudomonas aeruginosa [11]): 4 µg/mL (≈ 5.38 µM) | MIC (Pseudomonas aeruginosa [12]): 8 µg/mL (≈ 10.8 µM) | MIC (Pseudomonas aeruginosa [13]): 8 µg/mL (≈ 10.8 µM) | MIC (Pseudomonas aeruginosa [14]): 4 µg/mL (≈ 5.38 µM) | MIC (Escherichia coli [15]): 4 µg/mL (≈ 5.38 µM) | MIC (Pseudomonas aeruginosa [16]): 4 µg/mL (≈ 5.38 µM) | MIC (Acinetobacter lwoffii [17]): 32 µg/mL (≈ 43.1 µM) | MIC (Klebsiella aerogenes): 4 µg/mL (≈ 5.38 µM) | MIC (Pseudomonas aeruginosa [18]): 4 µg/mL (≈ 5.38 µM)
